Reference: US20240376163A1, “PEPTIDE FOR INHIBITING CALCINEURIN AND USE THEREOF” (Seoul National University R&DB Foundation, priority 2023, published 2024)

System: Jurkat T cells
Assay: mRNA sequencing of activated Jurkat T cells
Format: cell-based, human
Conditions: P + I

C=CC[C@@H]1/C=C(\C)C[C@H](C)C[C@H](OC)[C@H]2O[C@@](O)(C(=O)C(=O)N3CCCC[C@H]3C(=O)O[C@H](/C(C)=C/[C@@H]3CC[C@@H](O)[C@H](OC)C3)[C@H](C)[C@@H](O)CC1=O)[C@H](C)C[C@@H]2OC [FK506, Tacrolimus, reference compound]
MSMO1 FPKM (Jurkat T cells): 59.655 FPKM | MT2A FPKM (Jurkat T cells): 369.658 FPKM | MXD3 FPKM (Jurkat T cells): 17.861 FPKM | MYB FPKM (Jurkat T cells): 58.524 FPKM | MZB1 FPKM (Jurkat T cells): 22.015 FPKM | N4BP3 FPKM (Jurkat T cells): 1.739 FPKM | NAA16 FPKM (Jurkat T cells): 3.527 FPKM | NCKAP1 FPKM (Jurkat T cells): 8.582 FPKM | NCOA3 FPKM (Jurkat T cells): 9.949 FPKM | NDRG1 FPKM (Jurkat T cells): 126.361 FPKM | NDRG2 FPKM (Jurkat T cells): 2.881 FPKM | NEDD9 FPKM (Jurkat T cells): 3.748 FPKM | NFATC1 FPKM (Jurkat T cells): 3.793 FPKM | NFKB1 FPKM (Jurkat T cells): 34.242 FPKM | NFKB2 FPKM (Jurkat T cells): 49.22 FPKM | NLRC3 FPKM (Jurkat T cells): 7.789 FPKM | NME4 FPKM (Jurkat T cells): 16.395 FPKM | NOTCH2 FPKM (Jurkat T cells): 10.308 FPKM | NOTCH3 FPKM (Jurkat T cells): 0.902 FPKM | NPDC1 FPKM (Jurkat T cells): 4.328 FPKM | NR4A3 FPKM (Jurkat T cells): 1.927 FPKM | NREP FPKM (Jurkat T cells): 9.925 FPKM | NRP1 FPKM (Jurkat T cells): 14.572 FPKM | NSG1 FPKM (Jurkat T cells): 4.302 FPKM | NSMF FPKM (Jurkat T cells): 3.164 FPKM | NT5E FPKM (Jurkat T cells): 8.91 FPKM | NTRK1 FPKM (Jurkat T cells): 0.836 FPKM | ODC1 FPKM (Jurkat T cells): 245.466 FPKM | OPTN FPKM (Jurkat T cells): 12.958 FPKM | OSBPL5 FPKM (Jurkat T cells): 3.354 FPKM | PAM FPKM (Jurkat T cells): 1.483 FPKM | PCNA-AS1 FPKM (Jurkat T cells): 70.937 FPKM | PDCD1 FPKM (Jurkat T cells): 1.377 FPKM | PDGFA FPKM (Jurkat T cells): 3.25 FPKM | PDGFC FPKM (Jurkat T cells): 2.292 FPKM | PDIA6 FPKM (Jurkat T cells): 123.669 FPKM | PDLIM1 FPKM (Jurkat T cells): 6.874 FPKM | PELI2 FPKM (Jurkat T cells): 11.262 FPKM | PEX5L FPKM (Jurkat T cells): 1.428 FPKM | PHACTR2 FPKM (Jurkat T cells): 2.927 FPKM | PHLDB2 FPKM (Jurkat T cells): 3.898 FPKM | PI16 FPKM (Jurkat T cells): 17.07 FPKM | PKIG FPKM (Jurkat T cells): 12.411 FPKM | PKM FPKM (Jurkat T cells): 1736.037 FPKM | PLAC8 FPKM (Jurkat T cells): 3.158 FPKM | PLEC FPKM (Jurkat T cells): 21.747 FPKM | PLS3 FPKM (Jurkat T cells): 0.052 FPKM | POTEE FPKM (Jurkat T cells): 1.42 FPKM | POU2AF1 FPKM (Jurkat T cells): 2.274 FPKM | POU2F2 FPKM (Jurkat T cells): 3.317 FPKM | PPIF FPKM (Jurkat T cells): 50.291 FPKM | PPP1R15A FPKM (Jurkat T cells): 77.478 FPKM | PPP1R16B FPKM (Jurkat T cells): 29.659 FPKM | PRDM8 FPKM (Jurkat T cells): 39.913 FPKM | PRNP FPKM (Jurkat T cells): 39.685 FPKM | PSMB10 FPKM (Jurkat T cells): 104.49 FPKM | PTPN6 FPKM (Jurkat T cells): 20.906 FPKM | PTPN7 FPKM (Jurkat T cells): 93.59 FPKM | PXYLP1 FPKM (Jurkat T cells): 5.01 FPKM | QPRT FPKM (Jurkat T cells): 13.402 FPKM | RAB37 FPKM (Jurkat T cells): 2.455 FPKM | RASGRP1 FPKM (Jurkat T cells): 4.464 FPKM | RASGRP2 FPKM (Jurkat T cells): 3.002 FPKM | RB1 FPKM (Jurkat T cells): 62.321 FPKM | RCBTB2 FPKM (Jurkat T cells): 13.008 FPKM | RCOR2 FPKM (Jurkat T cells): 1.361 FPKM | RGS2 FPKM (Jurkat T cells): 3.365 FPKM | RHOU FPKM (Jurkat T cells): 1.51 FPKM | RNF19A FPKM (Jurkat T cells): 12.334 FPKM | RNF212 FPKM (Jurkat T cells): 1.059 FPKM | RORA FPKM (Jurkat T cells): 2.502 FPKM | RRAS2 FPKM (Jurkat T cells): 18.257 FPKM | RTN4R FPKM (Jurkat T cells): 2.449 FPKM | RUNX1 FPKM (Jurkat T cells): 37.963 FPKM | RUNX3 FPKM (Jurkat T cells): 23.624 FPKM | SASH3 FPKM (Jurkat T cells): 59.349 FPKM | SBK1 FPKM (Jurkat T cells): 9.239 FPKM | SCG2 FPKM (Jurkat T cells): 159.394 FPKM | SCHIP1 FPKM (Jurkat T cells): 1.535 FPKM | SEPT3 FPKM (Jurkat T cells): 1.089 FPKM | SEPT6 FPKM (Jurkat T cells): 55.091 FPKM | SEPT9 FPKM (Jurkat T cells): 55.265 FPKM | SERINC5 FPKM (Jurkat T cells): 3.184 FPKM | SERPINB8 FPKM (Jurkat T cells): 23.788 FPKM | SERPINE2 FPKM (Jurkat T cells): 3.936 FPKM | SERTAD1 FPKM (Jurkat T cells): 16.162 FPKM | SGK1 FPKM (Jurkat T cells): 76.683 FPKM | SH2D1A FPKM (Jurkat T cells): 23.649 FPKM | SH2D2A FPKM (Jurkat T cells): 20.658 FPKM | SH3TC1 FPKM (Jurkat T cells): 1.562 FPKM | SIVA1 FPKM (Jurkat T cells): 50.269 FPKM | SLAMF1 FPKM (Jurkat T cells): 0.217 FPKM | SLAMF7 FPKM (Jurkat T cells): 3.121 FPKM | SLAMF8 FPKM (Jurkat T cells): 5.282 FPKM | SLC22A1 FPKM (Jurkat T cells): 7.005 FPKM | SLC27A2 FPKM (Jurkat T cells): 41.996 FPKM | SLC29A4 FPKM (Jurkat T cells): 1.68 FPKM | SLC35E4 FPKM (Jurkat T cells): 0.952 FPKM | SLC35G2 FPKM (Jurkat T cells): 10.118 FPKM | SMAD1 FPKM (Jurkat T cells): 4.873 FPKM | SMOX FPKM (Jurkat T cells): 14.9 FPKM | SMPD1 FPKM (Jurkat T cells): 20.599 FPKM | SORBS1 FPKM (Jurkat T cells): 0.4 FPKM | SOX4 FPKM (Jurkat T cells): 76.17 FPKM | SPINT1 FPKM (Jurkat T cells): 1.948 FPKM | SPRY1 FPKM (Jurkat T cells): 4.074 FPKM | SPRY4 FPKM (Jurkat T cells): 9.613 FPKM | SPSB1 FPKM (Jurkat T cells): 10.137 FPKM | SPTBN2 FPKM (Jurkat T cells): 2.135 FPKM | SRGN FPKM (Jurkat T cells): 10.812 FPKM | SSBP2 FPKM (Jurkat T cells): 7.127 FPKM | ST3GAL6 FPKM (Jurkat T cells): 4.018 FPKM | STAT2 FPKM (Jurkat T cells): 37.805 FPKM | STAT3 FPKM (Jurkat T cells): 83.385 FPKM | STAU2 FPKM (Jurkat T cells): 7.124 FPKM | STMN3 FPKM (Jurkat T cells): 10.423 FPKM | STX1A FPKM (Jurkat T cells): 16.1 FPKM | SYK FPKM (Jurkat T cells): 7.044 FPKM | TAGAP FPKM (Jurkat T cells): 4.352 FPKM | TAL1 FPKM (Jurkat T cells): 22.337 FPKM | TAP2 FPKM (Jurkat T cells): 5.187 FPKM | TAPBPL FPKM (Jurkat T cells): 19.59 FPKM | TBC1D4 FPKM (Jurkat T cells): 12.549 FPKM | TBC1D5 FPKM (Jurkat T cells): 4.088 FPKM | TBKBP1 FPKM (Jurkat T cells): 16.894 FPKM | TCF3 FPKM (Jurkat T cells): 39.165 FPKM | TCF7 FPKM (Jurkat T cells): 13.065 FPKM | TCF12 FPKM (Jurkat T cells): 34.798 FPKM | TDRD9 FPKM (Jurkat T cells): 1.245 FPKM | TGFBR2 FPKM (Jurkat T cells): 36.615 FPKM | THEM6 FPKM (Jurkat T cells): 3.232 FPKM | THEMIS FPKM (Jurkat T cells): 33.406 FPKM | TIAF1 FPKM (Jurkat T cells): 12.479 FPKM | TIAM1 FPKM (Jurkat T cells): 8.466 FPKM | TIAM2 FPKM (Jurkat T cells): 0.27 FPKM | TLE1 FPKM (Jurkat T cells): 1.864 FPKM | TMCC3 FPKM (Jurkat T cells): 4.527 FPKM | TNFAIP3 FPKM (Jurkat T cells): 25.168 FPKM | TNFRSF10B FPKM (Jurkat T cells): 25.474 FPKM | TNFSF10 FPKM (Jurkat T cells): 24.883 FPKM | TNFSF14 FPKM (Jurkat T cells): 1.023 FPKM | TPM4 FPKM (Jurkat T cells): 202.311 FPKM | TPST2 FPKM (Jurkat T cells): 21.077 FPKM | TRAF3IP3 FPKM (Jurkat T cells): 15.012 FPKM | TRIB1 FPKM (Jurkat T cells): 5.422 FPKM | TRIM21 FPKM (Jurkat T cells): 45.856 FPKM | TTLL1 FPKM (Jurkat T cells): 3.69 FPKM | UBE2L6 FPKM (Jurkat T cells): 164.565 FPKM | UHRF1 FPKM (Jurkat T cells): 8.288 FPKM | VAMP1 FPKM (Jurkat T cells): 14.793 FPKM | VAT1 FPKM (Jurkat T cells): 44.696 FPKM | VAV1 FPKM (Jurkat T cells): 30.218 FPKM | WARS FPKM (Jurkat T cells): 105.541 FPKM | WDR76 FPKM (Jurkat T cells): 8.368 FPKM | XCL1 FPKM (Jurkat T cells): 0 FPKM | XCL2 FPKM (Jurkat T cells): 0 FPKM | XIRP1 FPKM (Jurkat T cells): 6.348 FPKM | XRCC6BP1 FPKM (Jurkat T cells): 9.744 FPKM | YPEL1 FPKM (Jurkat T cells): 5.628 FPKM | ZFP36L1 FPKM (Jurkat T cells): 153.648 FPKM | ZFP36L2 FPKM (Jurkat T cells): 13.343 FPKM | ZNF280D FPKM (Jurkat T cells): 2.345 FPKM | ZNF367 FPKM (Jurkat T cells): 2.354 FPKM | ZNF480 FPKM (Jurkat T cells): 7.174 FPKM | ZNF521 FPKM (Jurkat T cells): 2.011 FPKM | ZNF652 FPKM (Jurkat T cells): 2.631 FPKM | ZNF704 FPKM (Jurkat T cells): 0.014 FPKM | ZNF827 FPKM (Jurkat T cells): 1.521 FPKM | ZNFX1 FPKM (Jurkat T cells): 16.708 FPKM | ZP4 FPKM (Jurkat T cells): 0.462 FPKM | ZYX FPKM (Jurkat T cells): 127.794 FPKM | ADORA2A FPKM: 0.998 FPKM | AGK FPKM: 14.029 FPKM | ARHGEF3 FPKM: 8.637 FPKM | ASAP1 FPKM: 7.765 FPKM | ATG14 FPKM: 7.863 FPKM | ATP6V1B2 FPKM: 50.672 FPKM | BCL2L1 FPKM: 39.402 FPKM | C3 FPKM: 0.489 FPKM | C10orf54 FPKM: 0.382 FPKM | CABP1 FPKM: 1.201 FPKM | CCDC64 FPKM: 10.044 FPKM | CCL1 FPKM: 0 FPKM | CCL3 FPKM: 0 FPKM | CCL3L1 FPKM: 0 FPKM | CCL3L3 FPKM: 0 FPKM | CCL4 FPKM: 0 FPKM | CCL4L1 FPKM: 0.087 FPKM | CCL4L2 FPKM: 0.087 FPKM | CCL20 FPKM: 0 FPKM | CCND2 FPKM: 0.558 FPKM | CD27-AS1 FPKM: 5.11 FPKM | CD27 FPKM: 3.098 FPKM | CD55 FPKM: 6.015 FPKM | CD70 FPKM: 3.005 FPKM | CD97 FPKM: 19.394 FPKM | CD200 FPKM: 0 FPKM | COL27A1 FPKM: 4.463 FPKM | CREB5 FPKM: 0.577 FPKM
